Experimental data: patent publication US20220324803A1 (Teon Therapeutics, Inc., priority 2019, published 2022)
pKi: −log10 of the molar value.

molecular target: T1, human Prostanoid EP4 Receptor (EP4) (Homo sapiens, UniProt P35408); experiment: Prostanoid EP4 binding assay (3H-prostaglandin E2 displacement, cell membranes); details: HEK293 cell membranes with human EP4, 3H-prostaglandin E2, 24° C.
T1 construct: expressed in transfected cells; host or cells: HEK293 (G418 selection); membranes prepared by differential centrifugation
Protocol: HEK293 cells transfected with human Prostanoid EP4 Receptor (EP4) are maintained in DMEM supplemented with L-Glutamine, 10% FBS and 300 μg/ml G418. Cells are harvested and membranes prepared by differential centrifugation, following lysis of the cells in the presence of protease inhibitors, for use in the receptor binding assay. EP4 binding assay is performed in 50 mM HEPES pH7.4, 5 mM MgCl2, 1 mM CaCl2) and 0.2% BSA. Testing compounds are diluted with DMSO to make 8-point 4-fold serial dilution. Cell membrane homogenates are incubated at 24° C. with ^3H-prostaglandin E2 in the absence or presence of the testing compound in assay buffer. Nonspecific binding (Low control: LC) and total binding (High control: HC) are determined in the presence or absence of saturated cold ligand Prostaglandin E2 (PGE2). Specific binding is calculated by subtracting nonspecific binding from total binding. When binding assays are completed, the reaction mixture is filtered rapidly under vacuum through glass fiber filters (GF/C, Packard) presoaked with 0.5% BSA for at least 0.5 hour at room temperature and then washed for 4 times with cold wash buffer (50 mM HEPES pH7.4, 500 mM NaCl, 0.1% BSA) using a 96-sample Perkin Elmer Filtermate Harvester (Unifilter, Packard). The filters are dried for 1 hour at 50 degrees then counted for radioactivity in a scintillation counter using Perkin Elmer Microscint 20 cocktail. ^3H trapped on filter is counted using Perkin Elmer MicroBeta2 Reader. Inhibition is calculated using following equation: % Inhibition=(1−(Assay well−Average_LC)/(Average_HC−Average_LC))×100%. The results are expressed as a percent inhibition of the control radioligand specific binding. Data are analyzed and IC50 is calculated using GraphPad Prism 5 and the model “log(inhibitor) vs. response—Variable slope”. The binding affinity of the compounds is determined by using the Cheng and Prusoff equation Ki=IC50/(1+[radioligand]/Kd).

T1 sequence (P35408 whole entry): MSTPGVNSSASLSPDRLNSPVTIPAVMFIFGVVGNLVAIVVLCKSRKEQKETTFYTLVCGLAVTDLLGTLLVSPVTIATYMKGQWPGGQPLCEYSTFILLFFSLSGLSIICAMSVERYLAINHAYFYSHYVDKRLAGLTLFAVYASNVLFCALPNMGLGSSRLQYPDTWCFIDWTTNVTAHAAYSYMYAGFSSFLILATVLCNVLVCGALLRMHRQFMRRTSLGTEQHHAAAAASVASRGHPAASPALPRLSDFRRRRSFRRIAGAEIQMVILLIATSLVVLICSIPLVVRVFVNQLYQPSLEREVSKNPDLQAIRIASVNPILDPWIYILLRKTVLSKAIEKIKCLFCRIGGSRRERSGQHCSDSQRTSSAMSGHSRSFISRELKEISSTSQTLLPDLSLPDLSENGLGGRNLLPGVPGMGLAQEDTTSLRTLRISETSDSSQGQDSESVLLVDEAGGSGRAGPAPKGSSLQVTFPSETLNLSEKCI

SMILES | pKi
O=C(N[C@H]1CC2(C1)C[C@H](C(=O)O)C2)c1ncn2cccc(Cc3ccc(C(F)(F)F)cc3)c12 (single isomer, unassigned) [Compound 6A, cis-2-[[8-[[4-(trifluoromethyl)phenyl]methyl]imidazo[1,5-a]pyridine-1-carbonyl]amino]spiro[3.3]heptane-6-carboxylic acid] | < 6.30
O=C(N[C@H]1CC2(C1)C[C@H](C(=O)O)C2)c1ncn2cccc(Cc3ccc(C(F)(F)F)cc3)c12 (single isomer, unassigned) [Compound 6B, trans-2-[[8-[[4-(trifluoromethyl)phenyl]methyl]imidazo[1,5-a]pyridine-1-carbonyl]amino]spiro[3.3]heptane-6-carboxylic acid] | > 7.00
CCn1nc(C(=O)N[C@H]2CC3(C2)C[C@H](C(=O)O)C3)c2c(Cc3ccc(C(F)(F)F)cc3)cccc21 (single isomer, unassigned) [Compound 11A, cis-2-[[1-ethyl-4-[[4-(trifluoromethyl)phenyl]methyl]indazole-3-carbonyl]amino]spiro[3.3]heptane-6-carboxylic acid] | 6.30 to 7.00
CCn1nc(C(=O)N[C@H]2CC3(C2)C[C@H](C(=O)O)C3)c2c(Cc3ccc(C(F)(F)F)cc3)cccc21 (single isomer, unassigned) [Compound 11B, trans-2-[[1-ethyl-4-[[4-(trifluoromethyl)phenyl]methyl]indazole-3-carbonyl]amino]spiro[3.3]heptane-6-carboxylic acid] | > 7.00
O=C(NC1CC2(C1)CC(C(=O)O)C2)c1cnn2cccc(Cc3cc4ccccc4cn3)c12 (single isomer, unassigned) [Compound 13B, trans-2-[[4-(3-isoquinolylmethyl)pyrazolo[1,5-a]pyridine-3-carbonyl]amino]spiro[3.3]heptane-6-carboxylic acid] | > 7.00
C[C@H](NC(=O)c1ncn2cccc(Cc3ccc(C(F)(F)F)cc3)c12)c1ccc(C(=O)O)cc1 [Compound 5, 4-[(1S)-1-[[8-[[4-(trifluoromethyl)phenyl]methyl]imidazo[1,5-a]pyridine-1-carbonyl]amino]ethyl]benzoic acid] | 6.30 to 7.00
O=C(O)CC12CC(NC(=O)c3ncn4cccc(Cc5ccc(C(F)(F)F)cc5)c34)(C1)C2 [Compound 17, 2-[3-[[8-[[4-(trifluoromethyl)phenyl]methyl]imidazo[1,5-a]pyridine-1-carbonyl]amino]-1-bicyclo[1.1.1]pentanyl]acetic acid] | 6.30 to 7.00
CCn1nc(C(=O)NC23CC(CC(=O)O)(C2)C3)c2c(Cc3ccc(C(F)(F)F)cc3)cccc21 [Compound 19, 2-[3-[[1-ethyl-4-[[4-(trifluoromethyl)phenyl]methyl]indazole-3-carbonyl]amino]-1-bicyclo[1.1.1]pentanyl]acetic acid] | 6.30 to 7.00
CC(C)n1nc(C(=O)N[C@@H](C)c2ccc(C(=O)O)cc2)c2c(Cc3ccc(C(F)(F)F)cc3)cccc21 [Compound 20, 4-[(1S)-1-[[1-isopropyl-4-[[4-(trifluoromethyl)phenyl]methyl]indazole-3-carbonyl]amino]ethyl]benzoic acid] | > 7.00
CC(C)n1nc(C(=O)N[C@H]2CC3(C2)C[C@H](C(=O)O)C3)c2c(Cc3ccc(C(F)(F)F)cc3)cccc21 (stereo partly drawn) [Compound 21, trans-2-[[1-isopropyl-4-[[4-(trifluoromethyl)phenyl]methyl]indazole-3-carbonyl]amino]spiro[3.3]heptane-6-carboxylic acid] | > 7.00
CC(C)n1nc(C(=O)NC23CC(CC(=O)O)(C2)C3)c2c(Cc3ccc(C(F)(F)F)cc3)cccc21 [Compound 22, 2-[3-[[1-isopropyl-4-[[4-(trifluoromethyl)phenyl]methyl]indazole-3-carbonyl]amino]-1-bicyclo[1.1.1]pentanyl]acetic acid] | < 6.30
CC(C)Cn1nc(C(=O)N[C@@H](C)c2ccc(C(=O)O)cc2)c2c(Cc3ccc(C(F)(F)F)cc3)cccc21 [Compound 23, 4-[(1S)-1-[[1-isobutyl-4-[[4-(trifluoromethyl)phenyl]methyl]indazole-3-carbonyl]amino]ethyl]benzoic acid] | > 7.00
